Data published in US7186695B2 (priority 2001, dated 2007).
Like-named read-outs stand apart in the source and are kept apart here.

Experiments:
HDMVE cells = assay: Endothelial cell tube formation in Matrigel; assay type: cell-based, human; conditions: 18 hours; for effect on tube formation: 0.1, 1 or 100 μM
Experimental: FIG. 21. GSAO perturbs endothelial cell tube formation in Matrigel. Matrigel (100 μl) was added to wells of 96 well plates and allowed to gel for 60 minutes at 37° C. HDMVE cells (10,000 cells per well) in complete media containing 0.1, 1 or 100 μM GSAA or GSAO were seeded onto the Matrigel and the plates were incubated in 5% CO2, 37° C. The phase contrast micrographs were taken after 18 hours incubation.
Endothelial cells arrange into tube-like structures when seeded onto three-dimensional matrices such as the extracellular matrix preparation, Matrigel, or collagen. The tubes can be considered to represent immature blood vessels. Matrigel (100 μl, Becton Dickinson, Bedford, Mass.) was added to wells of 96 well plates (Gibco BRL, Gaithersburg, Md.) and allowed to gel for 60 minutes at 37° C. Human dermal microvascular endothelial (HDMVE) cells were harvested and cultured as described by Stathakis et al. (1997). HDMVE cells (8,000 cells per well) in 150 μl of M199 (Gibco BRL, Gaithersburg, Md.) media containing 30% pooled human serum, 50 μg per mL Heparin (Sigma, St. Louis, Mo.), 100 μg per mL Endothelial Cell Growth Supplement (Gibco BRL, Gaithersburg, Md.) and 0.1, 1 or 100 μM GSM or GSAO were seeded onto the Matrigel and the plates were incubated for 18 hours in 5% CO2, 37° C. Phase contrast micrographs of the wells were collected.

BAE cells = assay: Proliferation and viability of cultured cells, 72 hr, cell count; assay type: cell-based, bovine; conditions: for IC50: Bos taurus, 72 h, BAE, 72 hr
Experimental: BCE (Folkman et al. 1979), BAE, BxPC-3 (ATCC, Bethesda, Md.), HT1080 (Jiang et al., 1999), 3T3 (ATCC, Bethesda, Md.) and BVSM (Hogg et al., 1997) cells were harvested and cultured as indicated. Cells (0.5 mL of 30,000 or 100,000 cells per mL) were seeded into gelatinized 24-well culture plates (Corning Costar, Corning, N.Y.) in Dulbecco's Modified Eagle's Medium (DMEM, JHR Bioscience, Lenexa, Kans.) containing 10% fetal calf serum (FCS, Intergen Comp., Purchase, N.Y.) and 1% Glutamine Pen-Strep (GPS, Irvine Scientific, Santa Ana, Va.) and allowed to attach for 24 hr in 10% CO2 at 37° C. The media was then replaced with DMEM and 1% GPS containing 0 to 1 mM GSAO or GSAA and either 5% bovine calf serum (BCS, HyClone, Logan, Utah) and 1 ng per mL FGF-2 (Genzyme, Cambridge, Mass.) or 5% BCS and 10 ng per mL VEGF (Genzyme, Cambridge, Mass.) for BCE cells, 5% or 10% BCS for BAE cells, 5% BCS for BVSM cells, and 5% FCS for BxPC-3, HT1080 and 3T3 cells. Cells were cultured for 0 to 72 hr in 10% CO2 at 37° C. then dispersed in trypsin/EDTA (GibcoBRL, Granc Island, N.Y.), resuspended in Coulter balanced electrolyte solution and counted with a Z1 Coulter counter (Coulter Corp., Miami, Fla.). In all experiments there were two control wells containing DMEM with 1% GPS and either 5% BCS for BCE cells, 2% BCS for BAE and BVSM cells, or 2% FCS for BxPC-3, HT1080 and 3T3 cells. These wells represented no to limited proliferation.

Human bone marrow cells = assay: 12 day bone marrow culture assay, granulocyte/macrophage colonies; assay type: cell-based; conditions: 12 days
Experimental: FIG. 20. Effect of GSAO on Proliferation of bone marrow progenitor cells. Human bone marrow cells were incubated in semi-solid agar containing 20% BCS, […] and 0 to 100 μM GSAA or GSAO for 12 days. Granulocyte/macrophage colonies of 40 or more cells were counted under an inverted microscope. The data points and errors represent the mean and SE of quadruplicate cultures.
GSAO reduced the number of granulocyte/macrophage colonies in a 12 day human bone marrow culture assay with an IC50 of ˜30 μM (FIG. 20). […] Human bone marrow cells (˜5×10^5 cells per mL) were added to semi-solid agar in DMEM containing 20% BCS, 5 ng per mL IL-3 and 0 to 100 μM GSM or GSAO. The cultures were incubated for 12 days at 37° C. and 5% CO2 and clusters of 40 or more cells were counted under an inverted microscope according to Metcalf (1977).

Row | SMILES | effect on tube formation (HDMVE cells) | effect on proliferation or viability of BAE cells (BAE cells; not shown) | effect on colony numbers (Human bone marrow cells; up to a concentration of 100 μM) | concentration at which effects on tube formation were apparent (HDMVE cells) [µM] | concentration at which effects on tube formation were marked (HDMVE cells) [µM] | IC50 (BAE cells; 5% BCS, read-out: Proliferation IC50) [µM] | IC50 (BAE cells; 5% BCS, >90% confluent, read-out: Viability IC50) [µM] | IC50 (BAE cells; 10% BCS, read-out: Proliferation IC50) [µM] | IC50 (BAE cells; 10% BCS, >90% confluent, read-out: Viability IC50) [µM] | IC50 (Human bone marrow cells; Homo sapiens, Bone marrow cell, 288 h, semi-solid agar, 20% BCS, IL-3, read-out: IC50 for reduction of the number of granulocyte/macrophage colonies) [µM]
1 | N[C@@H](CCC(=O)N[C@@H](CSCC(=O)Nc1ccc([As](=O)(O)O)cc1)C(=O)NCC(=O)O)C(=O)O [GSAA, 4-(N-(S-glutathionylacetyl)amino)phenylarsonic acid, reference compound] | no apparent effect | did not effect either proliferation or viability | no effect |  |  |  |  |  |  | 
2 | NC(CCC(=O)NC(CSCC(=O)Nc1ccc([As]=O)cc1)C(=O)NCC(=O)O)C(=O)O (centres unmarked) [GSAO, 4-(N-(S-glutathionylacetyl)amino)-phenylarsenoxide] | perturbed tube formation |  |  | 0.1 | 100 | ~0.02 | ~8 | ~0.2 | ~10 | ~30
